Experiment [1] concerns trabecular bone (proximal tibia) of ovariectomized rats. The experiment is described as follows: Bone studies in ovariectomized rats: trabecular bone surface area (TB/TV), histological, proximal tibia. In kind it is in vivo, rat. The settings on record: 28 days. On the procedure:
3-month-old female rats are ovariectomized and treated once daily with the test compound immediately after the operation for 28 days. The administration is done subcutaneously in castor oil/benzyl benzoate or arachis oil/ethanol. The animals are sacrificed on the day after the last administration, and femurs, tibiae and uteri are removed. The uteri are weighed, fixed and worked up for histological studies. The determination of the bone density is carried out ex vivo on prepared long bones with use of pQCT (Quantitative Computer Tomography). The measurements are performed at a distance of 5-7 mm from the ball of the joint on the distal femur or the proximal tibia.
As an alternative, the action on the bone is determined by measuring the trabecular bone surface area of the secondary spongiosa in histological preparations of the distal femur or the proximal tibia. The result is expressed as the proportion, in percent, of the trabecular bone surface area in the measured total bone surface area ([…]). The bone density that is measured with use of QCT and the trabecular bone surface area that is determined in the histological section correlate well to one another. A comparison of the two measurement variables is therefore permissible.
About 50% of the bone density of the animals is lost by the ovariectomy. […] In Table 4 and FIG. 2, the results of this test for doses of 0.1-100 μg/animal/day are presented. The bone density was measured on the distal femur; for comparison, the trabecular bone surface area in the proximal tibia was measured. The data that are contained in Table 4 mean specifically:
TB/TV trabecular bone surface area/total bone surface area; histologically determined
For compound B according to the invention, their bone-protecting action was also determined (Table 6). For this purpose, the parameter of TB/TV was determined, which, however, with respect to the informational value for the bone-protecting activity correlates well to the parameter of BMD-qCT that is determined for compounds A and V. This can be ascertained from Table 4; both parameters were determined for compound A.

Experiment [2] relates to bone (distal femur / proximal tibia) of ovariectomized rats. Briefly: Bone studies in ovariectomized rats: bone density by pQCT. The settings on record: for % of Action of E2 (bone density tibia) / Bone Density Tibia: Table 7, proximal tibia. In kind it is in vivo, rat.
The test system of experiment [3] is bone / uterus of rats. The experiment is described as follows: Dissociation of bone action/uterus action (FIG. 7). In kind it is in vivo, rat. The settings on record: bone action vs uterus epithelial height, relative to 17β-estradiol. An excerpt: There, for compounds A, B and V, their bone-protecting actions are compared to the action of estrogen on the uterus (parameter: uterus epithelial height) as a function of dosage, in each case relative to the action of 17β-estradiol.

For experiment [4], the system named is uterus of infant rats. Briefly: Uterus growth test on infant rats (estrogenic action). In kind it is in vivo, rat. The settings on record: for Epithelial Height % E2 / Uterus Weight % E2: 3 days, infant rats; for estrogenic action in the uterus (in words): uterus growth test. The text has this: (§1) The influence of the compounds according to the invention on the uterus was examined in the uterus growth test (estrogenic action) and in the anti-uterus growth test (antiestrogenic action), both performed on infant rats.
In infant animals, both uterus and vagina show one of the estrogenic activity-dependent weight increases in their treatment with an estrogenically active substance. In the uterus, under estrogenic action, moreover, it results in a proliferation and height increase of the luminal epithelium.
Immature, normal rats (body weight 40-50 g) receive the substance s.c. over 3 days (d1-d3). On day 4 (d4), the animals are sacrificed with CO2. The uteri are prepared outside and weighed. A piece of the uterus, preferably a uterine horn, is set in formaldehyde for the histological evaluation and embedded in paraffin. The stimulation of the organ weights (relative to mg/100 g of body weight) and the epithelial height are indicated in percentage stimulation in comparison to the reference compound 17β-estradiol. (Substitution dose E2 0.3 μg/animal).

Experiment [5] concerns uterus of infant rats. The experiment is described as follows: Anti-uterus growth test in infant rats (antiestrogenic action). In kind it is in vivo, rat. The settings on record: with 0.3 μg/animal/day 17β-estradiol.
Text: as §1
The uterus of infant estrogen-substituted rats can be used as a test model to detect a direct action of substances with antiestrogenic properties. The parameter of the estrogenic action is the uterus growth that is induced by estradiol in infant rats and that is inhibited by simultaneous administration of a substance with antiestrogenic action.
The test substances are treated s.c. on 3 successive days (d1-d3) in combination with a substitution dose of 0.3 μg/animal/day of 17β-estradiol. As a positive control, 17β-estradiol alone is used; the vehicle group is used as a negative control. On day 4 (d4), the animals are sacrificed, uteri and vaginae are prepared outside and weighed. The organ weights are converted into mg/100 g of body weight, and then the mean and the standard deviation for each dosage are calculated. The inhibition of the uterus or vaginal growth that is induced by 17β-estradiol is indicated in % as inhibition.

The target in experiment [6] is T1, human estrogen receptor (Homo sapiens, UniProt P03372).
T1 construct: expressed in transfected cells; host or cells: HeLa cells
T1 sequence (P03372 1-595): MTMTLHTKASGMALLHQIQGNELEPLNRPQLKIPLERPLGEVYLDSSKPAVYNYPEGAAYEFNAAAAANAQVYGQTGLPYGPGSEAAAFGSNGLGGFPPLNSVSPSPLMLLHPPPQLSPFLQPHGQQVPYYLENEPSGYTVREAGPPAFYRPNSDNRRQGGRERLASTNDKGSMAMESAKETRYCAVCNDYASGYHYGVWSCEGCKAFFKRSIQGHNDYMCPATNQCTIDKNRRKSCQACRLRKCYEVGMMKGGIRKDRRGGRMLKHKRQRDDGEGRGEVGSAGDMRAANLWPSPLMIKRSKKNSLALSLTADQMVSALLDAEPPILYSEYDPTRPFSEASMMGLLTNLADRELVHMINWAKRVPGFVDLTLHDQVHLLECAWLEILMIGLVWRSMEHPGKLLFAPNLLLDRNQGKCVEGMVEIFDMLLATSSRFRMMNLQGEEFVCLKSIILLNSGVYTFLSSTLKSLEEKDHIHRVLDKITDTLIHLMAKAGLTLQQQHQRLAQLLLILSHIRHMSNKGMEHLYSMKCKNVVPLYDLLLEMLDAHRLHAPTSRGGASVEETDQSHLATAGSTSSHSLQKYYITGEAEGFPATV
The experiment is described as follows: Transactivation assay in HeLa cells (antiestrogenic action, vit-TK-CAT reporter). The settings on record: in the presence of 0.1 nM estradiol, read-out: Antagonism IC50, HELA. In kind it is cell-based.

In experiment [7] the target is T2, estrogen receptors (Homo sapiens, UniProt P03372).
T2 construct: expressed in transfected cells; host or cells: HeLa cells
The experiment is described as follows: Transactivation assay in HeLa cells (partial estrogenic action, rPR-TK). The settings on record: rPR-TK reporter, read-out: Agonism HELA (rPR-TK). In kind it is cell-based. On the procedure: The partial estrogenic action was also determined by transactivation assays. HeLa cells were […] with estrogen receptors and a reporter gene, which consists of the estrogen-response element of the progesterone receptor and the CAT-gene. The test was performed as described: Savouret et al., EMBO J. 10, 1875-1883 (1991).

[8] abbreviates: Table 6, tibia, 0.3 μg/animal/day s.c.
Setting [9] is: Table 4, distal femur, 0.3 μg/animal/day s.c., 28 days.
[10] abbreviates: Table 5, proximal tibia, 0.3 μg/animal/day s.c., 28 days.
Where [11] appears, read: 0.3 μg/animal/day s.c., 28 days.
The mark [12] stands for this setting: Table 6, tibia, 1 μg/animal/day s.c.
Where [13] appears, read: Table 6, tibia, 10 μg/animal/day s.c.
[14] abbreviates: Table 6, tibia, 100 μg/animal/day s.c.
[15] abbreviates: 100 μg/animal/day s.c., 28 days.
Setting [16] is: 250 μg/animal/day s.c., 28 days.

In the case of `C[C@]12CC[C@@H]3c4ccc(O)cc4CC[C@H]3[C@@H]1CC[C@@H]2O` [17β-estradiol, reference compound], the “TB/TV (Tibia)” value in experiment [1] (Table 4, proximal tibia, 0.3 μg/animal/day s.c.) is given as 34.0%. In experiment [1] (setting [8]), the “% of Action of E2 (TB/TV)” value is listed as 100% and the “TB/TV (Tibia)” value was determined as 26.0%. In experiment [2] (setting [9]), the “% of Action of E2 (bone density femur)” value is reported as 100% and the “Bone Density Femur” value was found to be 361.7 mg Ca/ccm. Moreover, in experiment [2] (setting [10]), the “% of Action of E2 (bone density)” value was determined as 100% and the “Bone Density” value amounted to 375.2 mg Ca/ccm. Besides, in experiment [2] (setting [11]), the “% of Action of E2 (bone density tibia)” value was 100% and the “Bone Density Tibia” value stood at 402.9 mg Ca/ccm.

Turning to `C[C@]12C[C@H](c3ccc(OCCCCC[S+]([O-])Cc4ccccn4)cc3)[C@@H]3c4ccc(O)cc4CC[C@H]3[C@]13CC[C@@]2(O)CC3` (stereo partly drawn) [Compound B, 14α,17α-ethano-11β-{4-[5-(2-pyridinomethylsulfinyl)pentyloxy]phenyl}-1,3,5(10)-estratriene-3,17β-diol], the “% of Action of E2 (TB/TV)” value in experiment [1] (setting [12]) stood at 52%; in experiment [1] (setting [13]), 47%; in experiment [1] (setting [14]), 45%. The “TB/TV (Tibia)” value in experiment [1] (setting [12]) is given as 19.6%; in experiment [1] (setting [13]), 18.9%; in experiment [1] (setting [14]), 18.6%. Also, the “dissociation of bone-protecting action from estrogen action on the uterus (in words)” value in experiment [3] is given as “considerably dissociated”. The “Epithelial Height % E2” value was determined as 4 % E2 in experiment [4] (0.01 mg/kg s.c.), 19 % E2 in experiment [4] (0.1 mg/kg s.c.), 18 % E2 in experiment [4] (1 mg/kg s.c.) and 13 % E2 in experiment [4] (10 mg/kg s.c.). Besides, the “Uterus Weight % E2” value in experiment [4] (0.01 mg/kg s.c.) was 3 % E2; in experiment [4] (0.1 mg/kg s.c.), 31 % E2; in experiment [4] (1 mg/kg s.c.), 14 % E2; in experiment [4] (10 mg/kg s.c.), 6 % E2. Besides, the “estrogenic activity relative to compound V (in words)” value in experiment [4] (s.c., in the considered dose range, vs compound V) is given as “approximately half as strongly estrogenically active”. Also, in experiment [4] (s.c.), the “estrogenic action in the uterus (in words)” value is “low estrogenic action”. The “Uterus Weight % of Inhibition” value was 32% in experiment [5] (0.1 mg/kg s.c.), 83% in experiment [5] (1 mg/kg s.c.) and 100% in experiment [5] (10 mg/kg s.c.). The half-maximal inhibitory concentration (IC50) in experiment [6] amounted to 300 pM. Besides, in experiment [7], the Emax came out at 50%.

Take `C[C@]12C[C@H](c3ccc(OCCCCC[S+]([O-])Cc4ccccn4)cc3)[C@@H]3c4ccc(O)cc4CC[C@H]3[C@@H]1CC[C@@H]2O` (stereo partly drawn) [Compound V, reference compound]: the “dissociation of bone-protecting action from estrogen action on the uterus (in words)” value in experiment [3] is on record as “the two curves coincide”. Besides, the “Epithelial Height % E2” value in experiment [4] (0.03 mg/kg s.c.) turned out to be 18 % E2; in experiment [4] (0.3 mg/kg s.c.), 33 % E2; in experiment [4] (3 mg/kg s.c.), 27 % E2. In addition, the “Uterus Weight % E2” value in experiment [4] (0.03 mg/kg s.c.) came out at 28 % E2; in experiment [4] (0.3 mg/kg s.c.) it was 32 % E2; in experiment [4] (3 mg/kg s.c.) it was 19 % E2. In experiment [4] (s.c.), the “estrogenic action in the uterus (in words)” value is “low estrogenic action”. Further, the “% of Action of E2 (bone density tibia)” value in experiment [2] (10 μg/animal/day s.c., 28 days) turned out to be 40%; in experiment [2] (setting [15]), 34.4%; in experiment [2] (setting [16]) it was 74%. Moreover, the “Bone Density Tibia” value in experiment [2] (10 μg/animal/day s.c., 28 days) is listed as 337.3 mg Ca/ccm; in experiment [2] (setting [15]), 331.2 mg Ca/ccm; in experiment [2] (setting [16]) it was 374.3 mg Ca/ccm. In addition, the “dose with which an action of about 80% of 17β-estradiol on trabecular bone is achieved” value in experiment [2] (proximal tibia, s.c.) is given as 250 μg/animal/day. Moreover, in experiment [5] (0.3 mg/kg s.c.), the “Uterus Weight % of Inhibition” value came out at 57%. The Emax in experiment [7] stood at 37%.

The term IC50 denotes the concentration at which inhibition is half-maximal.
